Data published in PMC11591893, “Exploring the Antidiabetic and Antihypertensive Potential of Peptides Derived from Bitter Melon Seed Hydrolysate” (Biomedicines, 2024).
“Also recorded” adds a separate entry of the source. Where a SMILES comes first, the peptide text is derived from it. Where no end group is shown, it is not given here.

Columns and labels:
[1] = biological target: T1, recombinant human dipeptidyl peptidase-IV (DPP4) (Homo sapiens, UniProt P27487); test: DPP4 inhibitory activity and IC50 (GP-pNA substrate, absorbance of pNA at 405 nm); format: biochemical; conditions: for IC50: synthetic peptides; for inhibition at 2000 µM / DPP4 inhibitory activity: synthetic peptides at 2 mM
T1 construct: purchased Sigma–Aldrich Co
Protocol: (§1) The DPP4 inhibitory activity was studied following Hung et al.. All the reagents and samples were dissolved in 0.1 M Tris-HCl buffer, pH 8. First, 25 µL of 1.6 mM GP-pNA was premixed with 25 µL of sample and incubated at 37 °C for 10 min. Then, 50 µL of 0.5 U/µL DPP4 was added. The reaction was set at 37 °C for one hour. 100 µL of 1 M sodium acetate at pH 4 was added to stop the enzymatic reaction. Using a PowerWave XS (Biotek®, Winooski, VT, USA) 96-well microplate reader, the absorbance of pNA, which was generated by the DPP4 and GP-pNA reactions, was measured at 405 nm. DPP4 inhibitory activity was examined by the following formula:(1) DPP4 inhibitory activity%=pNA(no inhibitor)−pNA(inhibitor)/pNA(no inhibitor)×100%,
(§2) The absorbances of pNA obtained in the presence and absence of an inhibitor were referred to as pNA (inhibitor) and pNA (no inhibitor), respectively. The DPP4 half-maximal inhibitory concentration (DPP4 IC50) was determined by plotting at least five logarithmic concentrations of the inhibitor versus their DPP4 inhibition (%) to construct a nonlinear regression.

[2] = test system: DPP4; conditions: cited from earlier work
[3] = biological target: T2, angiotensin-I-converting enzyme (ACE) from rabbit lungs (Oryctolagus cuniculus, UniProt P12822); test: ACE inhibitory activity and IC50 (HHL substrate, HA by RP-HPLC); format: biochemical
T2 construct: angiotensin-I-converting enzyme (ACE) from rabbit lungs; purchased Sigma–Aldrich Co; host or cells: rabbit lung tissue
T2 sequence (P12822 34-1310): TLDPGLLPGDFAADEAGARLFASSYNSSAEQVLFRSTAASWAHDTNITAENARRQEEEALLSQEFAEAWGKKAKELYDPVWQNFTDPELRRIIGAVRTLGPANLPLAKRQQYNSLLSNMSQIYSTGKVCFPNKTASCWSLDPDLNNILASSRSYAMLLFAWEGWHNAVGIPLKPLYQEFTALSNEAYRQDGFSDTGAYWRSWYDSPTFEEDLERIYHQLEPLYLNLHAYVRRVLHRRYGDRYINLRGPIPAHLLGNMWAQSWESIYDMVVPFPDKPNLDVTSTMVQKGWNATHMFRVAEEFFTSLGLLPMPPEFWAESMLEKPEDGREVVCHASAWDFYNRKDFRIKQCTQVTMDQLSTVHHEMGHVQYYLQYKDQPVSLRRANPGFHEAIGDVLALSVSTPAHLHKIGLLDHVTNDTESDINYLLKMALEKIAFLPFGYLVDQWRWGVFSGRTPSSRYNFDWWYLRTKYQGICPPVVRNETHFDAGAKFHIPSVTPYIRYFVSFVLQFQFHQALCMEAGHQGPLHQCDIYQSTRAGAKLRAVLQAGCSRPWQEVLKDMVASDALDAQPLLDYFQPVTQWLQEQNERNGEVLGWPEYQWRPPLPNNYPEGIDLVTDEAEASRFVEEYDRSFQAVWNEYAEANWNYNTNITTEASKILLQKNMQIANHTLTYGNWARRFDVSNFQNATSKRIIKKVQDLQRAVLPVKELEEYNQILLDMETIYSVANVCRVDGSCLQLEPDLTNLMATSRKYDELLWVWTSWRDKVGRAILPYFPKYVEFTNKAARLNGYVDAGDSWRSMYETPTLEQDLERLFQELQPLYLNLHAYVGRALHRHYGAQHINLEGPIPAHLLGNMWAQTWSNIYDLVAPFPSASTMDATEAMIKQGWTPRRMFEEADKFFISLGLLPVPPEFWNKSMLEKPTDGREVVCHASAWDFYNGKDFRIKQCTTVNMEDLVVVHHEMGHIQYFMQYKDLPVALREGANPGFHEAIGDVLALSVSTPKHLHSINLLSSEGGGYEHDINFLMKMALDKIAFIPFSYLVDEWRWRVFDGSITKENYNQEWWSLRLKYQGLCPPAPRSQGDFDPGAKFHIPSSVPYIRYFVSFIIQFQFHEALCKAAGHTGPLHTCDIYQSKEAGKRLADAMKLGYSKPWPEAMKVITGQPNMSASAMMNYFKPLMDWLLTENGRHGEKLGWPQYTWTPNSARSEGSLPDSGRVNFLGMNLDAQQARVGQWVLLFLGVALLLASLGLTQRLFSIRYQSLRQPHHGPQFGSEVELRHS
Protocol: (§3) The ACE inhibitory activity was investigated following Cushman and Cheung, with some modifications. First, 30 µL of 2.5 mM HHL was premixed with 10 µL of the sample at 37 °C for 5 min. Then, 20 µL of 0.05 mU/µL ACE was added. The reaction was maintained at 37 °C for one hour. Afterward, 60 µL of 1 N HCl was added to stop the reaction, and 10 µL of 0.2 µg/µL ferulic acid was used as an internal standard. All the reagents and samples were dissolved in pH 8.3 ACE buffer (760 mM boric acid, 300 mM NaCl, and 200 mM NaOH). Using UV-Vis RP-HPLC (Hitachi High-Tech Co., Tokyo, Japan), the area of HA, as the product of ACE and HHL reactions, was measured at 228 nm. An elution with 23% ACN and 0.1% TFA was used at a flow rate of 1 mL/min for 15 min to separate the analytes. ACE inhibitory activity was determined by the following formula:(2) ACE inhibitory activity%=HA(no inhibitor)−HA(inhibitor)/HA(no inhibitor)×100%
as §2, with “areas” for “absorbances”, “HA acquired” for “pNA obtained”, “HA” for “pNA”, “ACE” for “DPP4”, “(ACE” for “(DPP4”, “performed” for “determined”

[4] = biological target: T1, recombinant human dipeptidyl peptidase-IV (DPP4); test: Peptide inhibition mechanism toward DPP4 (Lineweaver–Burk plot); format: biochemical; conditions: GP-pNA 0.8, 1.6, 3.2 mM
Protocol: as §1
The inhibition mechanism of peptides on DPP4 and ACE was studied using the inhibitory assays described previously. The peptide inhibition mechanism toward DPP4 was identified by generating a Lineweaver–Burk plot using the production rates of pNA in the presence and absence of the inhibitor at GP-pNA concentrations of 0.8, 1.6, and 3.2 mM. Meanwhile, the HA production rate was determined with and without the inhibitor using HHL concentrations of 0.625, 1.25, and 5 mM to assess the peptide inhibition mechanism against ACE through a Lineweaver–Burk plot.

[5] = test system: pepsin, trypsin and α-chymotrypsin; test: Stability against simulated gastrointestinal (SGI) digestion (pepsin, then trypsin and α-chymotrypsin; LC-MS); format: in vitro ADME; conditions: pepsin ninety minutes, then α-chymotrypsin and trypsin three hours, 37 °C
Protocol: The peptide stability against SGI digestion was investigated by following the research of Gu and Wu, with some modifications. All the SGI enzyme-to-peptide ratios were fixed at 2%. The synthesized peptides MW4 and VF7 were dissolved in 35 mM NaCl buffer (pH 2.0) and digested by pepsin at 37 °C for ninety minutes, respectively. Next, the pH was adjusted to 7–8. Half of each sample was boiled for 15 min to terminate pepsin digestion. The other half of the sample was treated with trypsin and α-chymotrypsin and the reaction was continued at 37 °C for three hours, followed by boiling for 15 min to stop the reaction. An LC-MS analysis was employed to assess the resistance of peptides to SGI digestion.

[6] = test system: ACE; conditions: cited from earlier work
[7] = biological target: T2, angiotensin-I-converting enzyme (ACE) from rabbit lungs; test: Peptide inhibition mechanism toward ACE (Lineweaver–Burk plot); format: biochemical; conditions: HHL 0.625, 1.25, 5 mM
Protocol: as §3
The inhibition mechanism of peptides on DPP4 and ACE was studied using the inhibitory assays described previously. […] Meanwhile, the HA production rate was determined with and without the inhibitor using HHL concentrations of 0.625, 1.25, and 5 mM to assess the peptide inhibition mechanism against ACE through a Lineweaver–Burk plot.

T1 sequence (P27487 whole entry): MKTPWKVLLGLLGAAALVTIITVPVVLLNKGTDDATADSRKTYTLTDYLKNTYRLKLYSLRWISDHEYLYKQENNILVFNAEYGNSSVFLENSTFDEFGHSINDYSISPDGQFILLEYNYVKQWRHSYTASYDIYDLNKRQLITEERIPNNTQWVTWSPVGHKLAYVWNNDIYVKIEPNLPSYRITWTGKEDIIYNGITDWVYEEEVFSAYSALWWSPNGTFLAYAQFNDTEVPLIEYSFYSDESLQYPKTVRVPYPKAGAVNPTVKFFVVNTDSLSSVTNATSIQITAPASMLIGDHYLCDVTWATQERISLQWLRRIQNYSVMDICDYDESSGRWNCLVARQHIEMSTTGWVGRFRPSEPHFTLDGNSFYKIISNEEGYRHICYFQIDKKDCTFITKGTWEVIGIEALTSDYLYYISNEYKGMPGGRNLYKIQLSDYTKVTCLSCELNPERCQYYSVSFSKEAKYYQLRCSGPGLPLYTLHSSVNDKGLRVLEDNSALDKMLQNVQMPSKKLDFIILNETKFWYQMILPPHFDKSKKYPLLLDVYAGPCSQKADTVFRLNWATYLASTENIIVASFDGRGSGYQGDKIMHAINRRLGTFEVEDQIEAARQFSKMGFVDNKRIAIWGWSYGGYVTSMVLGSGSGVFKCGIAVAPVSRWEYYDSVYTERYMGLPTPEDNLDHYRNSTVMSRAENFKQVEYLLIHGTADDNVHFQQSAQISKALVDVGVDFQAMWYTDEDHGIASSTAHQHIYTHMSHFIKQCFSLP

| Molecule | IC50 [1] | inhibition at 2000 µM [1] | IC50 [2] | other results |
| --- | --- | --- | --- | --- |
| LFPNAGY-OH [LY7, LFPNAGY] | 913.6 ± 6.7 µM | 71% | – | – |
| PAGPF | – | – | 136 µM | – |
| APLVSW | – | – | 145 µM | IC50 [6]: 9.6 µM |
| HNLPVL [HL6] | – | – | – | DPP4 inhibitory activity [1]: 12% |
| CC(C)C[C@H](N)C(=O)N[C@@H](Cc1ccccc1)C(=O)N[C@@H](Cc1ccc(O)cc1)C(=O)O [LY3, LFY] (H-Leu-Phe-Tyr-OH; N-terminus assumed) | 2100 ± 55.2 µM | 49% | – | – |
| LPSW | – | – | 270 µM | IC50 [6]: 21 µM |
| WALPTQSW [peptide derived from Inca nut seed GP hydrolysate] | – | – | 132 µM | IC50 [6]: 4.7 µM |
| PLW [PW3] | – | – | – | DPP4 inhibitory activity [1]: 6% |
| ELF [EF3] | – | – | – | DPP4 inhibitory activity [1]: 4% |

Continued, in another order:

| IC50 [1] | inhibition at 2000 µM [1] | Molecule | IC50 [2] | other results |
| --- | --- | --- | --- | --- |
| 957 ± 39.2 µM | 68% | MLPQNF-OH [MF6, MLPQNF] | – | – |
| 151 ± 3.4 µM | 90% | VPSGAPF-OH [VF7, VPSGAPF] | – | inhibition at 200 µM ([3]; 200 µM): 19%; DPP4 inhibition mechanism [4]: competitive inhibitors; Stability during simulated gastrointestinal digestion [5]: remained stable; also recorded: neither MW4 nor VF7 was hydrolyzed |
| 128 ± 1.3 µM | 97% | CSCC[C@H](N)C(=O)N1CCC[C@H]1C(=O)N[C@@H](Cc1c[nH]cn1)C(=O)N[C@@H](Cc1c[nH]c2ccccc12)C(=O)O [MW4, MPHW] (H-MPHW-OH; N-terminus assumed) | – | IC50 [3]: 172 ± 10.6 µM; DPP4 inhibition mechanism [4]: competitive inhibitors; ACE inhibition mechanism [7]: competitive inhibitor; Stability during simulated gastrointestinal digestion [5]: remained stable; also recorded: neither MW4 nor VF7 was hydrolyzed |
| 1670 ± 45.4 µM | 56% | RATLPF-OH [RF6, RATLPF] | – | – |
